Measurements: patent US20200216818A1 (priority 2013, published 2020)

Key:
Assay in all cases: MTS viability assay, ZD2767P prodrug, untransduced vs VV-CPG2-transduced cells
WM226.4 cells = format: cell-based; conditions: WM226.4 cells transduced with VV-CPG2 at MOI 0.1 vs untransduced
FaDu cells = format: cell-based, human; conditions: FaDu cells transduced with VV-CPG2 at MOI 0.1 vs untransduced
SW620 cells = format: cell-based; conditions: SW620 cells transduced with VV-CPG2 at MOI 0.1 vs untransduced

O=C(O)CC[C@H](NC(=O)Oc1ccc(N(CCI)CCI)cc1)C(=O)O [ZD2767P, N-(4-[bis(2-iodoethyl)amino]phenoxycarbonyl)-L-glutamic acid]
reduction of the EC50 of ZD2767P (WM226.4 cells): 114 fold | reduction of the EC50 of ZD2767P (FaDu cells): 103 fold | reduction of the EC50 of ZD2767P (SW620 cells): 119 fold
